The experiment has as its system TNFα release from human peripheral blood mononuclear cells. Put plainly: Inhibition of LPS-stimulated TNFα release from human peripheral blood mononuclear cells (TNFα screen, ELISA). The experiment is classed as cell-based. The note with it: LPS-stimulated human PBMC, 18 hours incubation, TNFα in supernatant by ELISA. The protocol: Venous blood is collected from healthy volunteers and the mononuclear cells purified by centrifugation through Histopaque (Ficoll) cushions. TNFα production from these cells is stimulated by addition of lipopolysaccharide. After 18 hours incubation in the presence of LPS, the cell supernatant is removed and the concentration of TNFα in the supernatant determined by ELISA.

In the case of `O=C(N[C@H]1CC[C@@H](NC(=O)c2cc(Cl)cc(Cl)c2O)CC1)c1cc(F)cnc1OC1CCSCC1` [Example 26, Syn-N-[4-(3,5-Dichloro-2-hydroxy-benzoylamino)-cyclohexyl]-5-fluoro-2-(tetrahydro-thiopyran-4-yloxy)-nicotinamide], the half-inhibitory concentration (IC50) was determined as 14 nM.

The values are drawn from patent US20060178408A1, “Nicotinamide derivatives useful as pde4 inhibitors” (priority 2003, published 2006).
